Laboratory results: patent publication US20190030046A1, “USE OF PURE COMPOUNDS EXTRACTED FROM ANTRODIA CAMPHORATA” (priority 2016, published 2019)

Columns and labels:
[1] = test system: membrane GLUT4; experiment: Membrane GLUT4 protein expression in C2C12 myotube cells (Western blot); type: cell-based; settings: 1, 5, 10, and 25 μg/mL, 25 min
Method: In the present invention, C2C12 skeletal myoblasts (ATCC, CRL-1772) were maintained in growth media consisting of Dulbecco's modified Eagle's medium (DMEM) (Gibco BRL) and supplemented with 10% Fetal Bovine Serum (FBS) (Hyclone) and 100 U/mL penicillin/100 μg/mL streptomycin (Gibco BRL), and split 1:4 using 0.05% trypsin when 80% confluent. Myoblasts were diluted and placed in a 9 cm-diameter dish. Cells were cultured to achieve 80%-90% confluency and then the growth media was changed as 2% FBS/DMEM every 24 h for 5-7 days.
In experiments for determining GLUT4 and p-Akt(Ser473)/t-Akt proteins in tubes, differentiated C2C12 cells were serum-starved in DMEM/BSA for 2 h at 37° C. prior to incubation with MeOH crude extract (at 20, 100, 200, and 500 μg/mL), test compounds (at 1, 5, 10, and 25 μg/mL), or vehicle for 25 min, or 100 nM insulin for 25 min.
The cultures obtained by cell culture above were centrifuged, and the resulting pellet was resuspended in a homogenization buffer. The forgoing steps were performed with a filtration membrane. Protein concentrations were measured using a BCA assay (Pierce). Equal amounts of protein were diluted four times in SDS sample buffer, and subjected to SDS PAGE and Western blotting with antibodies specific for Akt, p-Akt Ser^473, and GLUT4. Density blotting analysis was performed using Alpha Easy FC software.

[2] = test system: C2C12 myoblasts; experiment: MTT test; type: cell-based; settings: dose of 1 to 25 μg/mL
[3] = HFD-induced diabetic mice: absolute tissue weight, body weight, food intake; type: in vivo, C57BL/6J mice; settings: 4 weeks; for Absolute tissue weight: Visceral fat: EWAT plus RWAT
From the text: (§1) The difference indicates the daily food intake.

[4] = test system: G6-Pase; experiment: Semiquantitative RT-PCR in liver tissue: G6-Pase; type: in vivo, C57BL/6J mice; settings: vs HF, 4 weeks
Method: as §1
(§2) Total RNA from liver tissue was isolated with a Trizol Reagent (Molecular Research Center, Inc., Cincinnati, Ohio, USA) according to the manufacturer's instructions. The integrity of the extracted total RNA was examined by 2% agarose gel electrophoresis, and the RNA concentration was determined by […] ultraviolet (UV) light absorbency at 260 nm and 280 nm (Spectrophotometer U-2800A, Hitachi). The total RNA (1 μg) was reverse transcribed to cDNA, and 5 μL Moloney murine leukemia virus reverse transcriptase (TEpicentre, Madison, Wis., USA). The PCR was performed in a final 25 μL containing 1 U Blend Taq-Plus (TOYOBO, Japan), 10 μL of the RT cDNA product, 10 μM of each forward (F) and reverse (R) primer, 75 mM Tris-HCL (pH 8.3) containing 1 mg/L Tween 20 (pH 8.3, also known as polyoxyethylene sorbitan monolaurate), 2.5 mM dNTP (deoxy-ribonucleoside triphosphate), and 2 mM MgCl2 (magnesium chloride). The PCR products were analyzed by 2% agarose gel and stained with ethidium bromide.

[5] = test system: aP2; experiment: Semiquantitative RT-PCR in liver tissue: aP2; type: in vivo, C57BL/6J mice; settings: vs HF, 4 weeks
Method: as §1, §2

[6] = test system: GPAT; experiment: Semiquantitative RT-PCR in liver tissue: GPAT; type: in vivo, C57BL/6J mice; settings: vs HF, 4 weeks
Method: as §1, §2

[7] = test system: UCP3; experiment: Semiquantitative RT-PCR in liver tissue: UCP3; type: in vivo, C57BL/6J mice; settings: vs HF, 4 weeks
Method: as §1, §2

[8] = test system: FAS; experiment: Western blot of FAS protein in liver and adipose tissue of HFD mice; settings: compared to HF, 4 weeks
Method: The HFD mice were subdivided into 6 groups (9 per group) followed by 8-week induction. […] Following four-week treatment and feeding, the food was removed, and the mice were fasted for 12 h and then sacrificed. Tissue samples required were collected from the mice and weighted. Some of the tissue samples were immediately stored at −80° C. and frozen for subsequent target gene analysis. Plasma samples were collected via centrifugation of whole blood at 1600×g for 15 min at 4° C., followed by plasma separation within 30 min.
We determined PPARα and FAS protein expression levels in liver tissue, PPARγ and FAS protein expression levels in adipose tissue, and membrane GLUT4 expression in skeletal muscle adipose. The total membrane fraction was collected with the buffer and determined as previously described. The membrane GLUT4, p-AMPK, and total AMPK protein content were determined by Western Blotting as previously described.

For `C=C(CC[C@@H](C(=O)O)[C@H]1CC[C@@]2(C)C3=CC[C@H]4C(C)(C)[C@@H](O)CC[C@]4(C)C3=CC[C@]12C)C(C)C` [TT, dehydroeburicoic acid], the “protein expression level of membrane GLUT4” value [1] was “increase”, the “toxicity to C2C12 myoblasts in MTT test” value [2] was “non-toxic” and the “Absolute tissue weight: Visceral fat” value ([3]; HF+TT1, 10 mg/kg/day oral) was 1142.9 mg. For the same molecule, the “Absolute tissue weight: Visceral fat” value ([3]; HF+TT2, 20 mg/kg/day oral) was 1116.2 mg, the “Absolute tissue weight: Visceral fat” value ([3]; HF+TT3, 40 mg/kg/day oral) was 979.3 mg and the “Absolute tissue weight: Brown adipose tissue (BAT)” value (from here on “Absolute tissue weight … (BAT)”) ([3]; HF+TT1, 10 mg/kg/day oral) was 228.6 mg. For the same molecule, the “Absolute tissue weight: Epididymal white adipose tissue (EWAT)” value (shortened to “Absolute tissue weight … (EWAT)”) ([3]; HF+TT1, 10 mg/kg/day oral) was 798.9 mg, the “Absolute tissue weight: Liver” value ([3]; HF+TT1, 10 mg/kg/day oral) was 848.3 mg and the “Absolute tissue weight: Mesenteric white adipose tissue (MWAT)” value (shortened to “Absolute tissue weight … (MWAT)”) ([3]; HF+TT1, 10 mg/kg/day oral) was 361.3 mg. For the same molecule, the “Absolute tissue weight: Retroperitoneal white adipose tissue (RWAT)” value (shortened to “Absolute tissue weight … (RWAT)”) ([3]; HF+TT1, 10 mg/kg/day oral) was 343.9 mg, the “Absolute tissue weight: Spleen” value ([3]; HF+TT1, 10 mg/kg/day oral) was 77.7 mg and the Final body weight ([3]; HF+TT1, 10 mg/kg/day oral) was 27.52 g. The Food intake ([3]; HF+TT1, 10 mg/kg/day oral) was 2.21 g/day/mouse, the Weight gain ([3]; HF+TT1, 10 mg/kg/day oral) was 2.24 g and the “Absolute tissue weight … (BAT)” value ([3]; HF+TT2, 20 mg/kg/day oral) was 197.3 mg. For the same molecule, the “Absolute tissue weight … (EWAT)” value ([3]; HF+TT2, 20 mg/kg/day oral) was 784.3 mg, the “Absolute tissue weight: Liver” value ([3]; HF+TT2, 20 mg/kg/day oral) was 841.8 mg and the “Absolute tissue weight … (MWAT)” value ([3]; HF+TT2, 20 mg/kg/day oral) was 340.9 mg. The “Absolute tissue weight … (RWAT)” value ([3]; HF+TT2, 20 mg/kg/day oral) was 331.9 mg, the “Absolute tissue weight: Spleen” value ([3]; HF+TT2, 20 mg/kg/day oral) was 81.5 mg and the Final body weight ([3]; HF+TT2, 20 mg/kg/day oral) was 26.47 g. The Food intake ([3]; HF+TT2, 20 mg/kg/day oral) was 2.16 g/day/mouse, the Weight gain ([3]; HF+TT2, 20 mg/kg/day oral) was 0.89 g and the “Absolute tissue weight … (BAT)” value ([3]; HF+TT3, 40 mg/kg/day oral) was 198.1 mg. For the same molecule, the “Absolute tissue weight … (EWAT)” value ([3]; HF+TT3, 40 mg/kg/day oral) was 667.8 mg, the “Absolute tissue weight: Liver” value ([3]; HF+TT3, 40 mg/kg/day oral) was 802.8 mg and the “Absolute tissue weight … (MWAT)” value ([3]; HF+TT3, 40 mg/kg/day oral) was 304.6 mg. The “Absolute tissue weight … (RWAT)” value ([3]; HF+TT3, 40 mg/kg/day oral) was 311.4 mg, the “Absolute tissue weight: Spleen” value ([3]; HF+TT3, 40 mg/kg/day oral) was 82.3 mg and the Final body weight ([3]; HF+TT3, 40 mg/kg/day oral) was 26.53 g. The Food intake ([3]; HF+TT3, 40 mg/kg/day oral) was 2.07 g/day/mouse, the Weight gain ([3]; HF+TT3, 40 mg/kg/day oral) was 0.83 g and the “G6-Pase mRNA expression level in liver” value ([4]; HF+TT1, 10 mg/kg/day oral) was “decreased”. For the same molecule, the “G6-Pase mRNA expression level in liver” value ([4]; HF+TT2, 20 mg/kg/day oral) was “decreased”, the “G6-Pase mRNA expression level in liver” value ([4]; HF+TT3, 40 mg/kg/day oral) was “decreased” and the “aP2 mRNA expression level in liver” value ([5]; HF+TT1, 10 mg/kg/day oral) was “decreased”. The “aP2 mRNA expression level in liver” value ([5]; HF+TT2, 20 mg/kg/day oral) was “decreased”, the “aP2 mRNA expression level in liver” value ([5]; HF+TT3, 40 mg/kg/day oral) was “decreased” and the “GPAT mRNA expression level in liver” value ([6]; HF+TT1, 10 mg/kg/day oral) was “decreased”. The “GPAT mRNA expression level in liver” value ([6]; HF+TT2, 20 mg/kg/day oral) was “decreased”, the “GPAT mRNA expression level in liver” value ([6]; HF+TT3, 40 mg/kg/day oral) was “decreased” and the “UCP3 mRNA expression level in liver” value ([7]; HF+TT2, 20 mg/kg/day oral) was “increased”. The “UCP3 mRNA expression level in liver” value ([7]; HF+TT3, 40 mg/kg/day oral) was “increased”, the “FAS protein expression level in adipose tissue” value ([8]; HF+TT1, 10 mg/kg/day oral) was “significantly decreased” and the “FAS protein expression level in liver” value ([8]; HF+TT1, 10 mg/kg/day oral) was “significantly decreased”. The “FAS protein expression level in adipose tissue” value ([8]; HF+TT2, 20 mg/kg/day oral) was “significantly decreased”, the “FAS protein expression level in liver” value ([8]; HF+TT2, 20 mg/kg/day oral) was “significantly decreased” and the “FAS protein expression level in adipose tissue” value ([8]; HF+TT3, 40 mg/kg/day oral) was “significantly decreased”. For the same molecule, the “FAS protein expression level in liver” value ([8]; HF+TT3, 40 mg/kg/day oral) was “significantly decreased”.
